Experimental data reported in patent publication US9242966B2, “Phthalazines as potassium ion channel inhibitors” (BRISTOL-MYERS SQUIBB COMPANY, priority 2013, dated 2016).

Biological target: T1, human KV 1.5 (Homo sapiens, UniProt P22460)
T1 construct: expressed in transfected cells; host or cells: mammalian L-929 cells (mouse fibroblast line)
Assay: Block of IKur current in patch clamped L-929 cells expressing human Kv1.5
Type: cell-based
Details: patch clamped mammalian L-929 cells stably expressing human Kv1.5 (IKur); for inhibition at 0.3 µM: L929, 0.3 μM, read-out: KV1_5% Inh L929 @0.3 μM
Text: 1. Synders, D. J.; et al., “A rapidly activating and slowly inactivating potassium channel cloned from human heart: functional analysis after stable mammalian cell culture expression”, J. Gen. Physiol., 101:513-543 (1993). […]

T1 sequence (P22460 whole entry): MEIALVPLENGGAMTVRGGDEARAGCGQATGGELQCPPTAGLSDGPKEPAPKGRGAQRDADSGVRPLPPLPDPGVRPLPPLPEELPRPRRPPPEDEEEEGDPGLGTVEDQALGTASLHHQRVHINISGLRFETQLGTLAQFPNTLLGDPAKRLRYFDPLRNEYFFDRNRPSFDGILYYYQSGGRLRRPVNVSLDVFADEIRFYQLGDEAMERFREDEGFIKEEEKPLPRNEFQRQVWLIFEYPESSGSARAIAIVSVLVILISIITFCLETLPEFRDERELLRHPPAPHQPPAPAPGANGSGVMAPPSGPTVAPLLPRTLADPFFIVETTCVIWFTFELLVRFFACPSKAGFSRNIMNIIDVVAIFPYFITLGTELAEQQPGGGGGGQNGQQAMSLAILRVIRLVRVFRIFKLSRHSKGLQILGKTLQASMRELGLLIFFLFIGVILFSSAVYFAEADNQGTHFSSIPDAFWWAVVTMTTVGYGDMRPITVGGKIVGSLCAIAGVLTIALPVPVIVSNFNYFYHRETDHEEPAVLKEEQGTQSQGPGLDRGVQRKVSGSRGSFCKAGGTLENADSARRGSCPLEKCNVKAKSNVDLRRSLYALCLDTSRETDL

Structure (SMILES)	inhibition at 0.3 µM [%]	KV1_5% Inh L929 @0.3 μM (0.3 μM) [%]
C[C@@H](Nc1nnc(-c2cncc(S(N)(=O)=O)c2)c2cccc(-c3ccccc3)c12)c1ccccc1 [Example 42, (R)-5-(5-Phenyl-4-((1-phenylethyl)amino)phthalazin-1-yl)pyridine-3-sulfonamide]	91.2	
NS(=O)(=O)c1cncc(-c2nnc(NCc3c(F)cccc3F)c3c(-c4ccccc4)cccc23)c1 [Example 36, 5-(4-((2,6-Difluorobenzyl)amino)-5-phenylphthalazin-1-yl)pyridine-3-sulfonamide]	91.1	
C[C@H](Nc1nnc(-c2cncc(S(N)(=O)=O)c2)c2cccc(-c3ccccc3)c12)c1ccccc1 [Example 43, (S)-5-(5-Phenyl-4-((1-phenylethyl)amino)phthalazin-1-yl)pyridine-3-sulfonamide]	86.8	
NS(=O)(=O)c1cncc(-c2nnc(NCc3ncccc3F)c3c(-c4ccccc4)cccc23)c1 [Example 37, 5-(4-((3-Fluoropyridin-2-yl)methylamino)-5-phenylphthalazin-1-yl)pyridine-3-sulfonamide]	78.6	
NC(=O)c1cncc(-c2nnc(NCc3ccccc3)c3c(-c4ccccc4)cccc23)c1 [Example 23, 5-(4-(Benzyl-amino)-5-phenylphthalazin-1-yl)nicotinamide]	83.5	
NS(=O)(=O)c1cncc(-c2nnc(NCc3cccc(F)c3)c3c(-c4ccccc4)cccc23)c1 [Example 32, 5-(4-((3-Fluorobenzyl)amino)-5-phenylphthalazin-1-yl)pyridine-3-sulfonamide]	53.2	
Nc1ccc(-c2nnc(NCc3ccccc3)c3c(-c4ccccc4)cccc23)cn1 [Example 20, 4-(6-Aminopyridin-3-yl)-N-benzyl-8-phenylphthalazin-1-amine]	92.8	
NC(=O)Nc1cncc(-c2nnc(NCc3ccccc3)c3c(-c4ccccc4)cccc23)c1 [Example 10, 1-(5-(4-(Benzylamino)-5-phenylphthalazin-1-yl)pyridin-3-yl)urea]	51.1	
O=C(NCCc1ccccc1F)c1cncc(-c2nnc(NCc3ccccn3)c3c(-c4ccccc4)cccc23)c1 [Example 50, N-(2-Fluorophenethyl)-5-(5-phenyl-4-((pyridin-2-ylmethyl)amino)phthalazin-1-yl)nicotinamide]	98.6	
NC(=O)c1cncc(-c2nnc(NCc3ccccn3)c3c(-c4ccccc4)cccc23)c1 [Example 5, 5-(5-Phenyl-4-(pyridin-2-ylmethylamino)phthalazin-1-yl)nicotinamide]	76	
NS(=O)(=O)c1cncc(-c2nnc(NCc3ncccn3)c3c(-c4ccccc4)cccc23)c1 [Example 29, 5-(5-Phenyl-4-((pyrimidin-2-ylmethyl)amino)phthalazin-1-yl)pyridine-3-sulfonamide]	68.1	
COCCNC(=O)c1cncc(-c2nnc(NCc3ccccn3)c3c(-c4ccccc4)cccc23)c1 [Example 46, N-(2-Methoxyethyl)-5-(5-phenyl-4-((pyridin-2-ylmethyl)amino)phthalazin-1-yl)nicotinamide]	51.1	
NS(=O)(=O)c1cncc(-c2nnc(NCc3cc(Cl)cc(Cl)c3)c3c(-c4ccccc4)cccc23)c1 [Example 39, 5-(4-((3,5-Dichlorobenzyl)amino)-5-phenylphthalazin-1-yl)pyridine-3-sulfonamide]	78.4	
CC(C)OC(=O)Nc1cncc(-c2nnc(NCc3ccccc3)c3c(-c4ccccc4)cccc23)c1 [Example 4]	95.4	
CCOC(=O)c1cncc(-c2nnc(NCc3ccccc3)c3c(-c4ccccc4)cccc23)c1 [Example 24, Ethyl 5-(4-(benzyl-amino)-5-phenylphthalazin-1-yl) nicotinate]	96.5	
NS(=O)(=O)c1cncc(-c2nnc(NCc3ccccc3)c3c(-c4ccc(F)cc4)cccc23)c1 [Example 28, 5-(4-(Benzylamino)-5-(4-fluorophenyl)phthalazin-1-yl)pyridine-3-sulfonamide]	41.5	
CC(C)CC(=O)Nc1cncc(-c2nnc(NCc3ccccc3)c3c(-c4ccccc4)cccc23)c1 [Example 22, N-(5-(4-(Benzyl-amino)-5-phenylphthalazin-1-yl)pyridin-3-yl)-3-methylbutanamide]	91.5	
NS(=O)(=O)c1cncc(-c2nnc(NCc3ccccn3)c3c(-c4ccccc4)cccc23)c1 [Example 1, 5-(5-Phenyl-4-(pyridin-2-ylmethylamino)phthalazin-1-yl)pyridine-3-sulfonamide]	79.5	
NS(=O)(=O)c1cncc(-c2nnc(NCc3cccc(OC(F)(F)F)c3)c3c(-c4ccccc4)cccc23)c1 [Example 40, 5-(5-Phenyl-4-((3-(trifluoromethoxy)benzyl)amino)phthalazin-1-yl)pyridine-3-sulfonamide]	90.2	

Structure (SMILES)	inhibition at 0.3 µM [%]	KV1_5% Inh L929 @0.3 μM (0.3 μM) [%]
CC(C)OCCNC(=O)c1cncc(-c2nnc(NCc3ccccn3)c3c(-c4ccccc4)cccc23)c1 [Example 48, N-(2-Isopropoxyethyl)-5-(5-phenyl-4-((pyridin-2-ylmethyl)amino)phthalazin-1-yl)nicotinamide]	71.1	
O=C(Nc1cncc(-c2nnc(NCc3ccccc3)c3c(-c4ccccc4)cccc23)c1)OCC(F)(F)F [Example 27, 2,2,2-Trifluoroethyl (5-(4-(benzylamino)-5-phenylphthalazin-1-yl)pyridin-3-yl)carbamate]	78	
CC(C)(C)CCNC(=O)c1cncc(-c2nnc(NCc3ccccn3)c3c(-c4ccccc4)cccc23)c1 [Example 47, N-(3,3-Dimcthylbutyl)-5-(5-phenyl-4-((pyridin-2-ylmethyl)amino)phthalazin-1-yl)nicotinamide]	96.4	
CC(C)(C)Oc1cc(-c2nnc(NCc3ccccc3)c3c(-c4ccccc4)cccc23)ccn1 [Example 13, N-Benzyl-4-(2-tert-butoxypyridin-4-yl)-8-phenylphthalazin-1-amine]	43	
Nc1cncc(-c2nnc(NCc3ccccn3)c3c(-c4ccccc4)cccc23)c1 [Example 9, 4-(5-Aminopyridin-3-yl)-8-phenyl-N-(pyridin-2-ylmethyl) phthalazin-1-amine]	87.1	
OCC(O)c1cncc(-c2nnc(NCc3ccccn3)c3c(-c4ccccc4)cccc23)c1 (racemic) [Example 7, 1-(5-(5-Phenyl-4-(pyridin-2-ylmethylamino)phthalazin-1-yl)pyridin-3-yl)ethane-1,2-diol]	16	
CC(Nc1nnc(-c2cncc(S(N)(=O)=O)c2)c2cccc(-c3ccccc3)c12)c1ccccn1 (centres unmarked) [Example 33, 5-(5-Phenyl-4-((1-(pyridin-2-yl)ethyl)amino)phthalazin-1-yl)pyridine-3-sulfonamide]	71.1	
O=C(NCC(O)CO)c1cncc(-c2nnc(NCc3ccccn3)c3c(-c4ccccc4)cccc23)c1 (centres unmarked) [Example 6, N-(2,3-Dihydroxypropyl)-5-(5-phenyl-4-(pyridin-2-ylmethylamino)phthalazin-1-yl)nicotinamide]	38.3	
Oc1cc(-c2nnc(NCc3ccccc3)c3c(-c4ccccc4)cccc23)ccn1 [Example 25, 4-(4-(Benzyl-amino)-5-phenylphthalazin-1-yl)pyridin-2-ol]	80.2	
COc1ccccc1CNc1nnc(-c2cncc(S(N)(=O)=O)c2)c2cccc(-c3ccccc3)c12 [Example 19, 5-(4-((2-Methoxy-benzyl)amino)-5-phenylphthalazin-1-yl)pyridine-3-sulfonamide]	72.5	
CC(Nc1nnc(-c2cncc(S(N)(=O)=O)c2)c2cccc(-c3ccccc3)c12)c1ccccn1 (centres unmarked) [Example 34, 5-(5-Phenyl-4-((1-(pyridin-2-yl)ethyl)amino)phthalazin-1-yl)pyridine-3-sulfonamide]		84
NS(=O)(=O)c1cncc(-c2nnc(NCc3cccc(C(F)(F)F)c3)c3c(-c4ccccc4)cccc23)c1 [Example 38, 5-(5-Phenyl-4-((3-(trifluoromethyl)benzyl)amino)phthalazin-1-yl) pyridine-3-sulfonamide]	94.9	
CC(=O)Nc1cncc(-c2nnc(NCc3ccccn3)c3c(-c4ccccc4)cccc23)c1 [Example 11, N-(5-(5-Phenyl-4-(pyridin-2-ylmethylamino)phthalazin-1-yl)pyridin-3-yl)acetamide]	78.8	
Cc1cnc(CNC(=O)c2cncc(-c3nnc(NCc4ccccn4)c4c(-c5ccccc5)cccc34)c2)cn1 [Example 45, N-((5-Methylpyrazin-2-yl)methyl)-5-(5-phenyl-4-((pyridin-2-ylmelhyl)amino)phthalazin-1-yl) nicotinamide]	75.6	
CS(=O)(=O)Nc1cncc(-c2nnc(NCc3ccccc3)c3c(-c4ccccc4)cccc23)c1 [Example 3, N-(5-(4-(Benzylamino)-5-phenylphthalazin-1-yl)pyridin-3-yl)methanesulfonamide]	77.3	
O=C(NCc1ccc(OC(F)(F)F)cc1)c1cncc(-c2nnc(NCc3ccccn3)c3c(-c4ccccc4)cccc23)c1 [Example 44, 5-(5-Phenyl-4-((pyridin-2-ylmethyl)amino)phthalazin-1 yl)-N-(4-(trifluoromethoxy)benzyl)nicotinamide]	96.5	
CC(C)(Nc1nnc(-c2cncc(S(N)(=O)=O)c2)c2cccc(-c3ccccc3)c12)c1ccccn1 [Example 35, 5-(5-Phenyl-4-((2-(pyridin-2-yl)propan-2-yl)amino)phthalazin-1-yl)pyridine-3-sulfonamide]	86.3	
CC(C)OC(=O)Nc1cncc(-c2nnc(NCc3ccccn3)c3c(-c4ccccc4)cccc23)c1 [Example 12, Isopropyl 5-(5-phenyl-4-(pyridin-2-ylmethylamino)phthalazin-1-yl)pyridin-3-ylcarbamate]	91.6	
CC(=O)Nc1cncc(-c2nnc(NCc3ccccc3)c3c(-c4ccccc4)cccc23)c1 [Example 2, N-(5-(4-(Benzylamino)-5-phenylphthalazin-1-yl)pyridin-3-yl)acetamide]	83.9	
